Test results as given in US7435837B2, “Dihydrobenzofuranyl alkanamine derivatives and methods for using same” (Wyeth, priority 2003, dated 2008).

Assays:
[1] = biological target: T1, human 5-hydroxytryptamine-2C (h5-HT2C) receptor (Homo sapiens, UniProt P28335); test: [125I]DOI binding to membranes of CHO cells expressing the human 5-HT2C receptor; settings: [125I]DOI radioligand, CHO cell membranes, room temperature 60 min; read-out: 5-HT2C Affinity Ki
T1 construct: expressed in transfected cells; host or cells: CHO (Chinese Hamster Ovary) cells; membranes
T1 sequence (P28335 33-458): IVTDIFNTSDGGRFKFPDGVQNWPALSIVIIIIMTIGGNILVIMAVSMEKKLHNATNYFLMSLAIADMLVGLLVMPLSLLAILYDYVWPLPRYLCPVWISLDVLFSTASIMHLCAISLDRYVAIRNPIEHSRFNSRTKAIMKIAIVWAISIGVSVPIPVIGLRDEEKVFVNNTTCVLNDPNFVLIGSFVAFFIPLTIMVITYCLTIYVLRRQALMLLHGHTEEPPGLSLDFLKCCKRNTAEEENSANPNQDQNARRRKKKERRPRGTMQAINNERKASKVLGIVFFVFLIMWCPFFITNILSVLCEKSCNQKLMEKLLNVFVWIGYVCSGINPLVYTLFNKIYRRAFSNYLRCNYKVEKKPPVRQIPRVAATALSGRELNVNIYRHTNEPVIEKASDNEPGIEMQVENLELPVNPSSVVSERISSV

human 5-HT2C receptor = biological target: T2, human 5-HT2C receptor (Homo sapiens, UniProt P28335); test: 5-HT2C receptor-stimulated calcium mobilization (FLIPR) in CHO cells; type: cell-based; settings: for EC50: calcium mobilization, CHO cells stably expressing human 5-HT2C, read-out: 5-HT2C Function EC50; for 5-HT2C Function Emax (%) / Emax: percentage of the response observed with a maximally effective concentration of 5-HT; for Emax: CHO, read-out: 5-HT2C Function Emax (%);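 as to all read-outs here: Fluo-3-AM fluorescence read on FLIPR every 1 s, agonist added after 10 baseline reads, response taken as peak minus lowest raw fluorescence count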
T2 sequence (P28335 33-458): T1 sequence (P28335 33-458)

| Compound | Ki [1] [nM] | EC50 (human 5-HT2C receptor) [nM] | 5-HT2C Function Emax (%) (human 5-HT2C receptor) | Emax (human 5-HT2C receptor) [%] |
| --- | --- | --- | --- | --- |
| Cc1cccc(C)c1-c1cc(F)cc2c1OC(CN)C2 (single isomer, unassigned; (-)) [Example 229, (−)-{[7-(2,6-dimethylphenyl)-5-fluoro-2,3-dihydro-1-benzofuran-2-yl]methyl}amine] | 0.4 | 6 | 100 |  |
| NCC1Cc2cc(F)cc(-c3ccoc3)c2O1 (racemic) [Example 204, (±)-{[5-fluoro-7-(3-furyl)-2,3-dihydro-1-benzofuran-2-yl]methyl}amine] | 1.3 | 336 |  | 90 |
| NCC1Cc2cc(Cl)cc(-c3ccccc3)c2O1 (single isomer, unassigned; (-)) [Example 86, (−)-1-(5-chloro-7-phenyl-2,3-dihydro-1-benzofuran-2-yl)methanamine] | 75 | 963 | 90 |  |
| NCC1Cc2cccc(-c3ccc(Cl)cc3)c2O1 (single isomer, unassigned; (-)) [Example 78, (−)-1-[7-(4-chlorophenyl)-2,3-dihydro-1-benzofuran-2-yl]methanamine] | 41 | 161 | 90 |  |
| NCC1Cc2cccc(-c3cc(Cl)ccc3Cl)c2O1 (single isomer, unassigned; (+)) [Example 164, (+)-{[7-(2,5-dichlorophenyl)-2,3-dihydro-1-benzofuran-2-yl]methyl}amine] | 0.28 | 0.3 | 100 |  |
| NCC1Cc2cccc(-c3c(F)cccc3F)c2O1 (racemic) [Example 139, (±)-1-[7-(2,6-difluorophenyl)-2,3-dihydro-1-benzofuran-2-yl]methanamine] | 2.5 | 6 |  | 90 |
| NCC1Cc2cc(F)cc(-c3cc(Cl)ccc3Cl)c2O1 (racemic) [Example 221, (±)-{[7-(2,5-dichlorophenyl)-5-fluoro-2,3-dihydro-1-benzofuran-2-yl]methyl}amine] | 1.4 | 2 |  | 90 |
| CC(C)c1cccc2c1OC(CN)C2 (single isomer, unassigned; (-)) [Example 19, (−)-(7-isopropyl-2,3-dihydro-1-benzofuran-2-yl)methylamine] | 2 | 66 | 100 |  |
| NCC1Cc2cccc(-c3ccc(F)cc3F)c2O1 (racemic) [Example 146, (±)-1-[7-(2,4-difluorophenyl)-2,3-dihydro-1-benzofuran-2-yl]methanamine] | 2.4 | 5 |  | 90 |
| Cc1c(Cl)cc(C(C)C)c2c1CC(CN)O2 (single isomer, unassigned; (+)) [Example 23, (+)-1-(5-chloro-7-isopropyl-4-methyl-2,3-dihydro-1-benzofuran-2-yl)methanamine] | 9 | 73 | 80 |  |
| COc1ccc(-c2cccc3c2OC(CN)C3)c(OC)c1 (single isomer, unassigned; (-)) [Example 144, (−)-1-[7-(2,4-dimethoxyphenyl)-2,3-dihydro-1-benzofuran-2-yl]methanamine] | 6.1 | 4 |  | 90 |
| NCC1Cc2cc(C(F)(F)F)cc(-c3cc(Cl)ccc3Cl)c2O1 (racemic) [Example 337, (±)-{[7-(2,5-dichlorophenyl)-5-(trifluoromethyl)-2,3-dihydro-1-benzofuran-2-yl]methyl}amine] | 34 | 48 |  | 90 |
| Cc1cc(Cl)ccc1-c1cccc2c1OC(CN)C2 (single isomer, unassigned; (+)) [Example 158, (+)-{[7-(4-chloro-2-methylphenyl)-2,3-dihydro-1-benzofuran-2-yl]methyl}amine] | 1.1 | 42 |  | 100 |
| COc1ccc(-c2cccc3c2OC(CN)C3)cc1 (racemic) [Example 79, (±)-1-[7-(4-methoxyphenyl)-2,3-dihydro-1-benzofuran-2-yl]methanamine] | 2 | 24 |  | 95 |
| NCC1Cc2cc(C(F)(F)F)cc(-c3ccccc3F)c2O1 (racemic) [Example 313, (±)-{[5-(trifluoromethyl)-7-(2-fluorophenyl)-2,3-dihydro-1-benzofuran-2-yl]methyl}amine] | 164 | 70 |  | 90 |
| Cc1ccccc1-c1cc(C2CCCC2)cc2c1OC(CN)C2 (racemic) [Example 309, (±)-{[5-cyclopentyl-7-(2-methylphenyl)-2,3-dihydro-1-benzofuran-2-yl]methyl}amine] | 8 | 107 |  | 90 |
| NCC1Cc2cc(F)cc(-c3cccnc3)c2O1 (single isomer, unassigned; (+)) [Example 208, (+)-{[5-fluoro-7-pyridin-3-yl-2,3-dihydro-1-benzofuran-2-yl]methyl}amine] | 1.9 | 0.36 | 100 |  |

Further lines, results first:

| Ki [1] [nM] | EC50 (human 5-HT2C receptor) [nM] | 5-HT2C Function Emax (%) (human 5-HT2C receptor) | Emax (human 5-HT2C receptor) [%] | Compound |
| --- | --- | --- | --- | --- |
| 7 | 143 |  | 80 | CNCC1Cc2cc(C)cc(-c3ccc(F)cc3)c2O1 (racemic) [Example 482, (±)-{[7-(4-fluorophenyl)-5-methyl-2,3-dihydro-1-benzofuran-2-yl]methyl}methylamine] |
| 3.1 | 7 |  | 80 | CNCC1Cc2cc(OC)cc(-c3ccccc3Cl)c2O1 (racemic) [Example 492, (±)-{[7-(2-chlorophenyl)-5-methoxy-2,3-dihydro-1-benzofuran-2-yl]methyl}methylamine] |
| 0.58 | 0.64 |  | 100 | CCc1cc2c(c(-c3ccccc3Cl)c1)OC(CN)C2 (racemic) [Example 306, (±)-{[5-ethyl-7-(2-chlorophenyl)-2,3-dihydro-1-benzofuran-2-yl]methyl}amine] |
| 19 | 672 |  | 70 | NCC1Cc2cc(F)cc(-c3cccc(Cl)c3Cl)c2O1 (racemic) [Example 211, (±)-{[7-(2,3-dichlorophenyl)-5-fluoro-2,3-dihydro-1-benzofuran-2-yl]methyl}amine] |
| 3.4 | 781 |  | 60 | CNCC1Cc2cccc(-c3cccc(C)c3)c2O1 (racemic) [Example 414, (±)-[(N-methyl-1-[7-(3-methylphenyl)-2,3-dihydro-1-benzofuran-2-yl]methanamine] |
| 8.5 | 149 | 60 |  | CNCC1Cc2cccc(-c3ccccc3C)c2O1 (single isomer, unassigned; (-)) [Example 407, (−)-N-methyl-1-[7-(2-methylphenyl)-2,3-dihydro-1-benzofuran-2-yl]methanamine] |
| 1 | 4 | 95 |  | Cc1ccccc1-c1cc(F)cc2c1OC(CN)C2 (single isomer, unassigned; (+)) [Example 105, (+)-1-[5-fluoro-7-(2-methylphenyl)-2,3-dihydro-1-benzofuran-2-yl]methanamine] |
| 24 | 15 |  | 100 | COc1cc2c(c(-c3ccc(Cl)cc3Cl)c1)OC(CN)C2 (racemic) [Example 365, (±)-{[7-(2,4-dichlorophenyl)-5-methoxy-2,3-dihydro-1-benzofuran-2-yl]methyl}amine] |
| 0.3 | 0.2 |  | 100 | NCC1Cc2cccc(-c3ccccc3Cl)c2O1 (single isomer, unassigned; (-)) [Example 129, (−)-1-[7-(2-chlorophenyl)-2,3-dihydro-1-benzofuran-2-yl]methanamine] |
| 1.2 | 9 |  | 100 | CNCC1Cc2cc(F)cc(-c3ccccc3C)c2O1 (racemic) [Example 440, (±)-{[5-fluoro-7-(2-methylphenyl)-2,3-dihydro-1-benzofuran-2-yl]methyl}methylamine] |
| 0.3 | 12 |  | 100 | NCC1Cc2cccc(-c3ccccc3Cl)c2O1 (racemic) [Example 60, (±)-1-[7-(2-chlorophenyl)-2,3-dihydro-1-benzofuran-2-yl]methanamine] |
| 7 | 504 |  | 80 | CNCC1Cc2cccc(-c3ccc(Cl)cc3)c2O1 (racemic) [Example 420, (±)-[(N-methyl-1-[7-(4-chlorophenyl)-2,3-dihydro-1-benzofuran-2-yl]methanamine] |
| 35 | 326 |  | 70 | CNCC1Cc2cc(OC)cc(-c3cc(F)ccc3F)c2O1 (racemic) [Example 498, (±)-{[7-(2,5-difluorophenyl)-5-methoxy-2,3-dihydro-1-benzofuran-2-yl]methyl}methylamine] |
| 0.14 | 0.1 |  | 100 | CNC[C@H]1Cc2cc(F)cc(-c3ccccc3Cl)c2O1 [Example 545, (R)-[7-(2-chloro-phenyl)-5-fluoro-2,3-dihydro-benzofuran-2-ylmethyl]-methyl-amine] |
